According to patent US7517849B1, “Inhibition of ABC transporters by transmembrane domain analogs” (priority 1999, dated 2009):
Where two headings read alike, the source gives them in different places. Values belong to the molecule of their own block, whether it stands above or below them. Where no end group is shown, it is not given here.

Assays:
[1] = tested on: Human colon cancer cells HCT15; assay: Sensitisation of HCT15 cells to adriamycin, sulforhodamine B toxicity assay; type: cell-based; conditions: HCT-15, 96 h, four days, without analog
human P-gp = target: T1, human P-gp (Homo sapiens, UniProt P08183); assay: Fluorogenic substrate (rhodamine 123) accumulation/efflux assay by FACS in P-gp-expressing KB 8-5 cells; type: cell-based
T1 construct: P-gp-expressing KB 8-5 cells were trypsinized; endogenous in cells; host or cells: KB 8-5 cells
T1 sequence (P08183 whole entry): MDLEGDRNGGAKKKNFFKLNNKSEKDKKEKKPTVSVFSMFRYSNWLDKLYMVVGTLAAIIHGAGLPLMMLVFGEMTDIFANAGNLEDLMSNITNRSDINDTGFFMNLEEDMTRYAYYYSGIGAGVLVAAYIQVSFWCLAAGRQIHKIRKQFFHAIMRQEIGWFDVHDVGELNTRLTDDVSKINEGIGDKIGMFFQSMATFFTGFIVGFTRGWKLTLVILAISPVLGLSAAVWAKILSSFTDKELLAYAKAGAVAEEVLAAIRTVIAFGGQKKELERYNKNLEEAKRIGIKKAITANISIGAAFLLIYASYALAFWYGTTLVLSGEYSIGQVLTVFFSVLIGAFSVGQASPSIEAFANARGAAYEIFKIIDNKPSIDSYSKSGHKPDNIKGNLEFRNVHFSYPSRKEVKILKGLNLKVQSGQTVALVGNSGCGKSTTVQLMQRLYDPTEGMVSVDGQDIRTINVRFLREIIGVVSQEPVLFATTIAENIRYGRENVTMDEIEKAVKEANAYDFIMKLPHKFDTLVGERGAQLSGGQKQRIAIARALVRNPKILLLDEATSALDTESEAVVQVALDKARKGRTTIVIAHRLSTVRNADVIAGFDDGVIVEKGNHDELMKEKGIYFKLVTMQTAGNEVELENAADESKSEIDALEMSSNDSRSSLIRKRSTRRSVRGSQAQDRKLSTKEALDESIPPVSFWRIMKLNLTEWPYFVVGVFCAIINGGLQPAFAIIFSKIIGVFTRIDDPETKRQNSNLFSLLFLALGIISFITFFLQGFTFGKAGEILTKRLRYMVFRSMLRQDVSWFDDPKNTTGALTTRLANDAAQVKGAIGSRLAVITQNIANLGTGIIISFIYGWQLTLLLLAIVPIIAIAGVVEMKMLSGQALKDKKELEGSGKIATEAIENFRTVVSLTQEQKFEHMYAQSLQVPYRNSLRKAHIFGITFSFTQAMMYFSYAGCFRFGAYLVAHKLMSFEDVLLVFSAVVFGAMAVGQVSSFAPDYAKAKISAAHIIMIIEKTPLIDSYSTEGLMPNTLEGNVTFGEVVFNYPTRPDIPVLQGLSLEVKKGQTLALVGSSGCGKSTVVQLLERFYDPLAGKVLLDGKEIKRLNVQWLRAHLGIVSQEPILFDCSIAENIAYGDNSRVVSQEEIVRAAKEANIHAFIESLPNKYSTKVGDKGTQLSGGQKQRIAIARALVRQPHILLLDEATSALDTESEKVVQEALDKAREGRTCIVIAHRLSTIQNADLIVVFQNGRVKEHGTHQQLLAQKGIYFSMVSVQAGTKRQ
Procedure: The activity of the antagonists was tested in KB 8-5 cells which express human P-gp (described in Hrycyna et al.; Biochemistry 37:13660-73 (1998)). Analyses of P-gp transport activity were conducted by fluorogenic substrate accumulation assays utilizing fluorescence activated cell sorting (FACS) analysis, as described in Dey, S. et al., Biochemistry 38:6630-9 (1999). […] In initial screens, […] stock solutions of TM peptides in DMSO were diluted in medium to give 10-50 μM solutions. Active compounds were then tested at progressively lower concentrations.
P-gp-expressing KB 8-5 cells were trypsinized, washed with 15 mL Iscove's modified Dulbecco's medium (IMEM), supplemented with 5% fetal bovine serum (FBS), and resuspended in the same medium. […] After the incubation, the cells were pelleted by centrifugation at 200×g and incubated further in their respective rhodamine-free media (+/−TM peptide) for an additional 45 min at 37° C. in the dark. Cells were then pelleted and resuspended in 400 μL of phosphate-buffered saline without Ca+2 or Mg+2 and immediately analyzed by fluorescence activated cell sorting (FACS).
Incubations of KB 8-5 cells were carried out as described in the previous Example, except that varying concentrations of the analog called TM 6 (see Example 4, supra) were used as the TM polypeptide.

[2] = target: human P-glycoprotein (product of MDR1 gene) (human, UniProt P08183 1-1280); assay: cell-based or functional assay
Chain of human P-glycoprotein (product of MDR1 gene) (P08183 whole entry S893A): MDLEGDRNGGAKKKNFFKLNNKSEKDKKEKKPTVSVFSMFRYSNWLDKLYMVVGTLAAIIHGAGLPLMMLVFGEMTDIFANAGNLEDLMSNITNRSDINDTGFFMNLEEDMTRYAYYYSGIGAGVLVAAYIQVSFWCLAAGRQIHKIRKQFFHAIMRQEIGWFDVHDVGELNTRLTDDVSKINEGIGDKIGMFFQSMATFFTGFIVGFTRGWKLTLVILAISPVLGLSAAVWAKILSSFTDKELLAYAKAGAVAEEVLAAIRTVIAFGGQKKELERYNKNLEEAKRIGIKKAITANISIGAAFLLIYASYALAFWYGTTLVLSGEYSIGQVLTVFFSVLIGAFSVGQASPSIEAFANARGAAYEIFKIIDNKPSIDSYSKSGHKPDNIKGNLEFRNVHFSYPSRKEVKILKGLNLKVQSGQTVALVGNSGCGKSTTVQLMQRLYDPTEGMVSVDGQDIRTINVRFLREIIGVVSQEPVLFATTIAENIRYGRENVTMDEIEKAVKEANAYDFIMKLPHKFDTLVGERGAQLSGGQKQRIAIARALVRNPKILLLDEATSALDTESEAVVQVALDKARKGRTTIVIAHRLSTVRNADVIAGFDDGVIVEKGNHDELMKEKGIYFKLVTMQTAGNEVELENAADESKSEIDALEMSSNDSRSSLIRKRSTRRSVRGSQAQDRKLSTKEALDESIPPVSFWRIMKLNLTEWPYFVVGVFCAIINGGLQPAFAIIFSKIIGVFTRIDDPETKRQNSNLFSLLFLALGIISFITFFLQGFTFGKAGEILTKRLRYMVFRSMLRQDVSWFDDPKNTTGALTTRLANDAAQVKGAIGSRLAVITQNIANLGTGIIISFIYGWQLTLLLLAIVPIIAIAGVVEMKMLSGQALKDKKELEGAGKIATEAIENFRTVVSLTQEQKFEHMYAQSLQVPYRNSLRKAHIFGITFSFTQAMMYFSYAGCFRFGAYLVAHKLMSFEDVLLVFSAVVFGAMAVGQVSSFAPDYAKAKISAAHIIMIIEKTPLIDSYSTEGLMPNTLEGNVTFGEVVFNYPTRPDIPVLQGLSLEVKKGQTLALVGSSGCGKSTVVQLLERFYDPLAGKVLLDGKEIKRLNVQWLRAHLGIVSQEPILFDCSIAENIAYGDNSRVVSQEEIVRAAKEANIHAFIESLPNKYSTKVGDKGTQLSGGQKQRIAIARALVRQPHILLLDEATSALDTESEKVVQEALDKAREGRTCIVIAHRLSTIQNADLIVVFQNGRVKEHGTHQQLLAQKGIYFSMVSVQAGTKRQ

Molecule: COc1cccc2c1C(=O)c1c(O)c3c(c(O)c1C2=O)C[C@@](O)(C(=O)CO)C[C@@H]3O[C@H]1C[C@H](N)[C@H](O)[C@H](C)O1 [adriamycin]
- IC50 [1]: 150 ± 10 nM

Molecule: DSGEYSIGQVLTVFFSVLIGAFSV [TM peptide 6]
- inhibition of rhodamine efflux (human P-gp; 5 μM TM peptide, KB 8-5 cells, 0.5 μg/mL rhodamine 123, FACS): inhibited rhodamine efflux
- activity as inhibitor of the MDR1 ABC transporter (in words) (human P-gp; cells expressing MDR1, efflux of substrates): most active
- inhibitory power compared with cyclosporin A (human P-gp; positive control 5 μM cyclosporin A, KB 8-5 cells): not as powerful an inhibitor as cyclosporin A
- dose/response inhibition of P-gp (human P-gp; varying concentrations, KB 8-5 cells, rhodamine 123 efflux): inhibited P-gp in a dose dependent manner

- activity as inhibitor of the MDR1 ABC transporter (in words) (human P-gp): active
Molecule: ISIGAAFLLIYASYALAFWYGTTDD-OH [TM5 Analog 1]

Molecule: LLIYASYALAFWYGTTLVLSGEGSSG-OH [TM5 analog]
- activity as inhibitor of the MDR1 ABC transporter (in words) (human P-gp): strongest inhibitor of the MDR1 ABC transporter yet tested
- inhibition of rhodamine 123 efflux compared with 5 micromolar cyclosporin (human P-gp): same degree of inhibition of rhodamine 123 efflux from MDR1 expressing cells as 5 micromolar cyclosporin

Molecule: DSGEYSIGQVLTVFFSVLIGAFSV [TM6 analog of MDR1 (synthetic peptide), Analog 1]
- IC50 of adriamycin (sulforhodamine B toxicity assay, HCT15 cells) in the presence of 1 µM TM6 [2]: 80 nM
